Laboratory results reported in ChEMBL document CHEMBL4507291 (2021).

Assays:
[1] = biological target: Leucine-rich repeat serine/threonine-protein kinase 2 (Homo sapiens, UniProt Q5S007); details: Compound concentration 1000.0 nM
[2] = biological target: T1, Alpha-2A adrenergic receptor (Homo sapiens) (UniProt P08913); assay: Adrenergic alpha2A Eurofins-Panlabs radioligand binding assay; set-up: ligand concentration 1 nM, non-specific ligand with concentration 10 µM WB-4101, incubation time 60 min, incubation temperature 25 °C; details: Compound concentration 10.0 uM
T1 sequence (whole entry): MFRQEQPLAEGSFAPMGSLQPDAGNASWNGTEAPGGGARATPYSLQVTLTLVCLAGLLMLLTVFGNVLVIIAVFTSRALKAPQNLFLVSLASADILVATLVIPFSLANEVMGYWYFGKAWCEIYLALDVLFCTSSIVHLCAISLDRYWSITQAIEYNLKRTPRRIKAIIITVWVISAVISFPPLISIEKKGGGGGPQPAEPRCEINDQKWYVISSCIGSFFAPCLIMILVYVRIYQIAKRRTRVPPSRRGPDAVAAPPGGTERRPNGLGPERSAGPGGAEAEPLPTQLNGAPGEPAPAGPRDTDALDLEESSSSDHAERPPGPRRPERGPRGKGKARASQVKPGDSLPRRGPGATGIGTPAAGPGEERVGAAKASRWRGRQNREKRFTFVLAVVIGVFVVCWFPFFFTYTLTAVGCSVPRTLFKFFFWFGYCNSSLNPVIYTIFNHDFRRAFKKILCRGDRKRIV

[3] = biological target: 5-hydroxytryptamine receptor 1B (Homo sapiens) (UniProt P28222); assay: Inhibition of Serotonin (5-Hydroxytryptamine) 5-HT1B at 10 µM in the Eurofins-Panlabs radioligand binding assay (Eurofins_assay_271200); details: Compound concentration 10.0 uM
[4] = biological target: T2, Inhibitor of nuclear factor kappa-B kinase subunit alpha (Homo sapiens) (UniProt O15111); assay: CHUK (IKK alpha) Kinase screen; details: Compound concentration 1.0 uM
T2 sequence (whole entry): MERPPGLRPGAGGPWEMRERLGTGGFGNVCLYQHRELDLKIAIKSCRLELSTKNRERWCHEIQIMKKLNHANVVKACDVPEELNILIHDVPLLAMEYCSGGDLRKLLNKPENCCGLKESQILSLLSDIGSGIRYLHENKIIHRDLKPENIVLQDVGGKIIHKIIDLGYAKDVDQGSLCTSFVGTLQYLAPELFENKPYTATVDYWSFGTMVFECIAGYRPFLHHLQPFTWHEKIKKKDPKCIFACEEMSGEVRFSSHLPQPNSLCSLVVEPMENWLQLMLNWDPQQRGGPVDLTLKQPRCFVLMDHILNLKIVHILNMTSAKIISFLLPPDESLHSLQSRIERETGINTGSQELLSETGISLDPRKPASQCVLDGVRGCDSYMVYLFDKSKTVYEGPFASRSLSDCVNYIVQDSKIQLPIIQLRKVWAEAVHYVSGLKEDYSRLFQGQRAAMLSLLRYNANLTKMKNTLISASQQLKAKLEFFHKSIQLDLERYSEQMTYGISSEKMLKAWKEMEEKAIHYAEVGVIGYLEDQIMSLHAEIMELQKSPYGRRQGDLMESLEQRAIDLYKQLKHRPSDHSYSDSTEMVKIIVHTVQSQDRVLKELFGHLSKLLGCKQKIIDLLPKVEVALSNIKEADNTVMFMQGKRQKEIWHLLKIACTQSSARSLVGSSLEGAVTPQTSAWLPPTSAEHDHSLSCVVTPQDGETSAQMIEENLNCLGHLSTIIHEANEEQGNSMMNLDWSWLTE

[5] = biological target: Death-associated protein kinase 1 (Homo sapiens) (UniProt P53355); assay: DAPK1 Kinase screen; details: Compound concentration 1.0 uM
[6] = biological target: Dual specificity tyrosine-phosphorylation-regulated kinase 1A (Homo sapiens) (UniProt Q13627); assay: DYRK1A Kinase screen; details: Compound concentration 1.0 uM
[7] = biological target: Fibroblast growth factor receptor 3 (Homo sapiens) (UniProt P22607); assay: FGFR3 Kinase screen; details: Compound concentration 1.0 uM
[8] = biological target: Mitogen-activated protein kinase kinase kinase 14 (Homo sapiens) (UniProt Q99558); assay: MAP3K14 (NIK) Kinase screen; details: Compound concentration 1.0 uM
[9] = biological target: Mitogen-activated protein kinase 3 (Homo sapiens) (UniProt P27361); assay: MAPK3 (ERK1) Kinase screen; details: Compound concentration 1.0 uM
[10] = biological target: Myosin light chain kinase 2, skeletal/cardiac muscle (Homo sapiens) (UniProt Q9H1R3); assay: MLCK (MLCK2) Kinase screen; details: Compound concentration 1.0 uM
[11] = biological target: T3, Serine/threonine-protein kinase Sgk2 (Homo sapiens) (UniProt Q9HBY8); assay: SGK2 Kinase screen; details: Compound concentration 1.0 uM
T3 sequence (whole entry): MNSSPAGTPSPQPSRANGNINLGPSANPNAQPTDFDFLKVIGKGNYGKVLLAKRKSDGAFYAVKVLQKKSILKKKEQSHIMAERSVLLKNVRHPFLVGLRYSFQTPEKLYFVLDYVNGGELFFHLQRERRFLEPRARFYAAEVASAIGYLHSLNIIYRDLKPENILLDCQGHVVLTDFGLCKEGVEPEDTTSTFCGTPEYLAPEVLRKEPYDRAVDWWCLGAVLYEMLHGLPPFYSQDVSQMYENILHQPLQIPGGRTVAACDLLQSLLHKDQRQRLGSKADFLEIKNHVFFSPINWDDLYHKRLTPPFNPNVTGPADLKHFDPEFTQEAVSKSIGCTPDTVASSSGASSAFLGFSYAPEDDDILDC

[12] = biological target: Serine/threonine-protein kinase SIK2 (Homo sapiens) (UniProt Q9H0K1); assay: SNF1LK2 Kinase screen; details: Compound concentration 1.0 uM
[13] = biological target: T4, TGF-beta receptor type-1 (Homo sapiens) (UniProt P36897); assay: TGFBR1 (ALK5) Kinase screen; details: Compound concentration 1.0 uM
T4 sequence (whole entry): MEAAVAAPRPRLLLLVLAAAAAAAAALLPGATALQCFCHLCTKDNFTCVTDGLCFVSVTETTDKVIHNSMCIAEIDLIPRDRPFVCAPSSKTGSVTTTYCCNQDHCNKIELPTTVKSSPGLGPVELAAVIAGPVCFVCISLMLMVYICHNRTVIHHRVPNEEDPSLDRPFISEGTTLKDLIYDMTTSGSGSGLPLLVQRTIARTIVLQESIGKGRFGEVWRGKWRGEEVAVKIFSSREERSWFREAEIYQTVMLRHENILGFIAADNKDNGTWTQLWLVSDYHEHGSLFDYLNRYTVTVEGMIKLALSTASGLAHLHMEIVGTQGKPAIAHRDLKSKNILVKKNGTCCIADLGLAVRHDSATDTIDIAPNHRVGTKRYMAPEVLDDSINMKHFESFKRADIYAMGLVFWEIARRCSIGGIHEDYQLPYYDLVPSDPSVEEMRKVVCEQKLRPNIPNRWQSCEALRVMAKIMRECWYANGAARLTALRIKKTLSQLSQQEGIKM

[14] = biological target: Melanocyte-stimulating hormone receptor (Homo sapiens) (UniProt Q01726); assay: Melanocortin MC1 Eurofins-Panlabs radioligand binding assay; details: Compound concentration 10.0 uM
[15] = biological target: Prostacyclin receptor (Homo sapiens) (UniProt P43119); assay: Prostanoid IP Eurofins-Panlabs radioligand binding assay; details: Compound concentration 10.0 uM
Sequence of Prostacyclin receptor (Homo sapiens) (P43119 whole entry): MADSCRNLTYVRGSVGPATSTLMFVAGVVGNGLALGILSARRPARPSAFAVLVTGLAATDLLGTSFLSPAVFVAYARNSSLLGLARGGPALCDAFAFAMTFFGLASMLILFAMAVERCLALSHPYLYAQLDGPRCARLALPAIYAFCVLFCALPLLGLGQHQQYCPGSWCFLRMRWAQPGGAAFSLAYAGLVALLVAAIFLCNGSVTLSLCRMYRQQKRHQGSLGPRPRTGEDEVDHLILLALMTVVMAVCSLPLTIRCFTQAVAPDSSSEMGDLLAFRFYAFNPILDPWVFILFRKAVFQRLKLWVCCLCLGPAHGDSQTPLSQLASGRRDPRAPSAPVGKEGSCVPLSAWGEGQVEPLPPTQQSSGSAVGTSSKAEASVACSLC

Sequence of Melanocyte-stimulating hormone receptor (Homo sapiens) (Q01726 whole entry, looked up): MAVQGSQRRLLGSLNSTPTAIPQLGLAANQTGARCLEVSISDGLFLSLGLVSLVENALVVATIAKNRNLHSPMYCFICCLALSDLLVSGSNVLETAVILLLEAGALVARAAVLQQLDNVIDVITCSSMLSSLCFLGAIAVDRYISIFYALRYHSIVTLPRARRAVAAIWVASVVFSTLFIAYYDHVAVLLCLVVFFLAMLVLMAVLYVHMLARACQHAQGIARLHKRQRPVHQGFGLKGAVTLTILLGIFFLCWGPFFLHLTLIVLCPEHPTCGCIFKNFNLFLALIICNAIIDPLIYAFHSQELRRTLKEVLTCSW
Sequence of Mitogen-activated protein kinase kinase kinase 14 (Homo sapiens) (Q99558 whole entry, looked up): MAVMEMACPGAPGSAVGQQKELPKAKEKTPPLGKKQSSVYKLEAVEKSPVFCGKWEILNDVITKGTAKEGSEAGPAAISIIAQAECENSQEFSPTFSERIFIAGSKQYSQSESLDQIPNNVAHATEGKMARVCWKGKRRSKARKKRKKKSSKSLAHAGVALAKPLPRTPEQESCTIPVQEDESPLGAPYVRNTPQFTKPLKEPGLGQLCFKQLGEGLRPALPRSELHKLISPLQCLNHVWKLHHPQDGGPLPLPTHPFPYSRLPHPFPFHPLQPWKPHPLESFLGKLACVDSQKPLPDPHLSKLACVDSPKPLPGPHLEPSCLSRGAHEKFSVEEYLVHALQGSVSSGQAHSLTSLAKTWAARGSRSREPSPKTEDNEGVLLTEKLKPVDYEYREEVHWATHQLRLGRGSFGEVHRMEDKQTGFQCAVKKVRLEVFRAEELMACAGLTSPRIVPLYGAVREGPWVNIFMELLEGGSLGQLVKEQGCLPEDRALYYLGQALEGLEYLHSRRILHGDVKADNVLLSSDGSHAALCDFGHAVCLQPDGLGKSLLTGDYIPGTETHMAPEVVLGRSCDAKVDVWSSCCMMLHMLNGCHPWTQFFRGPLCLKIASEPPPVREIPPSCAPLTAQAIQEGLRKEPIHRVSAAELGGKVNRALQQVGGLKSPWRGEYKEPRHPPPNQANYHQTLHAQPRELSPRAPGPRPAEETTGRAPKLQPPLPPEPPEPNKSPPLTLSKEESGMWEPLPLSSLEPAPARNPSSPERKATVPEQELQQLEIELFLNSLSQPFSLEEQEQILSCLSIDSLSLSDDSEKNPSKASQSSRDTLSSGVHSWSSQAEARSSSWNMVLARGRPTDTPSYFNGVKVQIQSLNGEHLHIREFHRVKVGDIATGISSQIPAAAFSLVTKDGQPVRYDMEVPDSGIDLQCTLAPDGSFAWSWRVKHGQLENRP
Sequence of Mitogen-activated protein kinase 3 (Homo sapiens) (P27361 whole entry): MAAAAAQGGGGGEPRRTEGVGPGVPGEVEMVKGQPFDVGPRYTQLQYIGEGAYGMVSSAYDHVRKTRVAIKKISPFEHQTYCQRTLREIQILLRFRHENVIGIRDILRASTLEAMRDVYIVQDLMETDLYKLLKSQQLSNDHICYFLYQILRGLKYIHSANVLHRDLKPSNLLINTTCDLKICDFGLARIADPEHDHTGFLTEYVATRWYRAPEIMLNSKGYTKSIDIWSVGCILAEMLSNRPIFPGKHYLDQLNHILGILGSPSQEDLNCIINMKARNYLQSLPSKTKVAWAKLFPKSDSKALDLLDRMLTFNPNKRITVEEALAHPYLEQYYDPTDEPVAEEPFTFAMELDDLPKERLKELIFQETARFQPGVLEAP
Sequence of Fibroblast growth factor receptor 3 (Homo sapiens) (P22607 23-806 limits assumed): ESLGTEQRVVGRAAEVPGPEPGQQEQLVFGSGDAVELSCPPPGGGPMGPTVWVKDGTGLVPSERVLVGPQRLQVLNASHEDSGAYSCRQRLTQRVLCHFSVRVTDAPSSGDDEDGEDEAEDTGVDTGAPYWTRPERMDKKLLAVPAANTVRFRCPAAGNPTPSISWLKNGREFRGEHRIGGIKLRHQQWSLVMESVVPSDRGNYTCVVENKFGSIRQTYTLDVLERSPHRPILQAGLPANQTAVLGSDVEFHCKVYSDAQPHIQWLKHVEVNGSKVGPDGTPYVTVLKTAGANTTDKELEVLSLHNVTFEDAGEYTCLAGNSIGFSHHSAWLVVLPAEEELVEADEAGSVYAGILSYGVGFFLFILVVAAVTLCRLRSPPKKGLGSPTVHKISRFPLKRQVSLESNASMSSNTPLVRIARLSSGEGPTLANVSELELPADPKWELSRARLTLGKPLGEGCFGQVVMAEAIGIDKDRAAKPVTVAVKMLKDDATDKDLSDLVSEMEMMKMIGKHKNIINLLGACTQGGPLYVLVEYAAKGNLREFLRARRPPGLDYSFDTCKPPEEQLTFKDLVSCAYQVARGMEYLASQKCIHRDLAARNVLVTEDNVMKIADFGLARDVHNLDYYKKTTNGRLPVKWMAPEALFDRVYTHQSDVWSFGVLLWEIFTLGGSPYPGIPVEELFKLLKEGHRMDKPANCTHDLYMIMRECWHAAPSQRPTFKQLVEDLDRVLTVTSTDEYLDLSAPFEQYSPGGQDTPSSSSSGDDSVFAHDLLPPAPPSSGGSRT
Sequence of Death-associated protein kinase 1 (Homo sapiens) (P53355 whole entry, looked up): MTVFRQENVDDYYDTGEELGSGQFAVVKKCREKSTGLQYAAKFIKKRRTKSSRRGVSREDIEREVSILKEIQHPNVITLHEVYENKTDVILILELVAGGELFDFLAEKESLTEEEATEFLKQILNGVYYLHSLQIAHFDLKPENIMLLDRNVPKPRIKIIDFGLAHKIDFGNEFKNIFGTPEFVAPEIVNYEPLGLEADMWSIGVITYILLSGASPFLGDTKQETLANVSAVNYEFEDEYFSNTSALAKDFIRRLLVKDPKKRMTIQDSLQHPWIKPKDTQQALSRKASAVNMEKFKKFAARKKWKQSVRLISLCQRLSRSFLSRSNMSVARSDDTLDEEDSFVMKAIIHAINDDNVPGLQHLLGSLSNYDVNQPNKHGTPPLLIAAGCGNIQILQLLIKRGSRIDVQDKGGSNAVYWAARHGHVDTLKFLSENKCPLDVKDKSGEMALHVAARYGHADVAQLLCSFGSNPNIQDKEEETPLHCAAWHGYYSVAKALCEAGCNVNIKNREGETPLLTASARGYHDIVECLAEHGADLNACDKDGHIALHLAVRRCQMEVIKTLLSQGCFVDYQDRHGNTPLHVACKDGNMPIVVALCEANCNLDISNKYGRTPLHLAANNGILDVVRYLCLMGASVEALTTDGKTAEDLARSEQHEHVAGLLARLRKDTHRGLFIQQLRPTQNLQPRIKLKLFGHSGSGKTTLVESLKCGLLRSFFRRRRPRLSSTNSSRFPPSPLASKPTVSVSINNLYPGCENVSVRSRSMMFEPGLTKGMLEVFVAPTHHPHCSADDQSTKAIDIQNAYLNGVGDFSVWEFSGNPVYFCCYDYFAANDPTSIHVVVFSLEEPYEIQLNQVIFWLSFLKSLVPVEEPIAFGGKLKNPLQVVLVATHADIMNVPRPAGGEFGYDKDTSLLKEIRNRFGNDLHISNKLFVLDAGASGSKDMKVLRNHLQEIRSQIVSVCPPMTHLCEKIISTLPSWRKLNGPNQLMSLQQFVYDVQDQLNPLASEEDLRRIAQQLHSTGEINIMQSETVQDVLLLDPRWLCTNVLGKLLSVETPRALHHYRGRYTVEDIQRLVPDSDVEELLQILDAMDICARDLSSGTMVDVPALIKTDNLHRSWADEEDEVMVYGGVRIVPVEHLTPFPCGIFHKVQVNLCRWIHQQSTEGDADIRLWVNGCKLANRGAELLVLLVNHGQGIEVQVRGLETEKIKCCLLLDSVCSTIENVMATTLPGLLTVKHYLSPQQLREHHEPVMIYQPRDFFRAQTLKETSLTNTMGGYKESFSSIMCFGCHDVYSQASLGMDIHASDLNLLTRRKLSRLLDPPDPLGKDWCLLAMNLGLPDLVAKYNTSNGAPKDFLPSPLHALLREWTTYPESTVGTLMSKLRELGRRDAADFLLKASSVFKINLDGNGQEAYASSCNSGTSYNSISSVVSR
Sequence of 5-hydroxytryptamine receptor 1B (Homo sapiens) (P28222 whole entry): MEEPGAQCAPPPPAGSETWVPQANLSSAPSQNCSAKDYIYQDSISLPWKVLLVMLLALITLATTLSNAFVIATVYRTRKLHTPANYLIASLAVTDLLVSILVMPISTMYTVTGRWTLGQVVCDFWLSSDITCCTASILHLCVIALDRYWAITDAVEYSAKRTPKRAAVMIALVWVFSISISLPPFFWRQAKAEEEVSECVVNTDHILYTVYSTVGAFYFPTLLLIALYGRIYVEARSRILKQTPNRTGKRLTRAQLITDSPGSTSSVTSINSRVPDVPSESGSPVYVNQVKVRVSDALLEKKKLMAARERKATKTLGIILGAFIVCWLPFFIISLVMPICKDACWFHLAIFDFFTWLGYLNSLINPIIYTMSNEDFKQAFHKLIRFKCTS

SMILES: C[C@@H]1CN(c2cc(-c3nn(C)c4ccc(OC5(C)CC5)cc34)ncn2)C[C@H](C)O1 [MLi-2-NC]
- residual activity [1]: 22%

SMILES: C[C@@H]1CN(c2cc(-c3n[nH]c4ccc(OC5(C)CC5)cc34)ncn2)C[C@H](C)O1 [MLi-2]
- inhibition [2]: 6%
- inhibition [3]: 0%
- inhibition [4]: 8.17%
- inhibition [5]: -0.645%
- inhibition [6]: 4.36%
- inhibition [7]: 9.38%
- inhibition [8]: 78.8%
- inhibition [9]: 18.7%
- inhibition [10]: 1.73%
- inhibition [11]: 1.36%
- inhibition [12]: 7.08%
- inhibition [13]: 0.904%
- inhibition [14]: -1%
- inhibition [15]: -9%
